# Assays:
# μ-opioid receptor [1] = molecular target: T1, μ-opioid receptor (Homo sapiens, UniProt P35372); assay: μ-opioid receptor [35S]GTPγS functional assay, U-2 OS cells; assay type: biochemical; parameters: expressed in transfected cells; host or cells: U-2 OS; conditions: U-2 OS cells; for EC50: read-out: GTPγS μ EC50; for Emax: relative to DAMGO, read-out: GTPγS μ Emax
# μ-opioid receptor [2] = molecular target: T1, μ-opioid receptor; assay: μ-opioid receptor [35S]GTPγS functional assay, HEK-293 or CHO cells; conditions: for Emax: read-out: GTPγS μ Emax
# κ opioid receptor [3] = molecular target: T2, κ opioid receptor (Homo sapiens, UniProt P41145); assay: biochemical; assay type: binding; parameters: expressed in transfected cells; host or cells: HEK 293 (in-house membrane prep); conditions: HEK-293 or CHO cells
# T2 sequence (P41145 whole entry): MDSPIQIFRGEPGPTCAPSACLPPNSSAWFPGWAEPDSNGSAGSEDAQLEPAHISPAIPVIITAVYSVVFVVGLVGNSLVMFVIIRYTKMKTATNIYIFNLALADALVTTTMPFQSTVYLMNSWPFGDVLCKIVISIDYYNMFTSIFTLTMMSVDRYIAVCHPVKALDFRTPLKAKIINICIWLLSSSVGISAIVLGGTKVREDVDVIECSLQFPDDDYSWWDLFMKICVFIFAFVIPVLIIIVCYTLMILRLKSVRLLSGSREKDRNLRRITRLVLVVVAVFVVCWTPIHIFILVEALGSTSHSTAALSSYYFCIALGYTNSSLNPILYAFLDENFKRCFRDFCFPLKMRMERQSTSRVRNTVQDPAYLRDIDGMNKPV
# κ opioid receptor [4] = molecular target: T2, κ opioid receptor; assay: κ-opioid receptor [35S]GTPγS functional assay, HEK-293 or CHO cells; assay type: biochemical; parameters: expressed in transfected cells; host or cells: U-2 OS (in-house membranes); conditions: HEK-293 or CHO cells
# Procedure: Membranes from recombinant HEK-293 cells, CHO or U-2 OS cells expressing the recombinant human κ opioid receptor (κ) were prepared by lysing cells in ice cold hypotonic buffer (2.5 mM MgCl2, 50 mM HEPES, pH 7.4) (10 mL/10 cm dish) followed by homogenization with a tissue grinder/Teflon pestle. Membranes from a cell line naturally expressing kappa opioid receptors can also be used. Membranes were collected by centrifugation at 30,000×g for 15 min at 4° C. and pellets were resuspended in hypotonic buffer to a final concentration of 1-3 mg/mL. Protein concentrations were determined using the BioRad protein assay reagent with bovine serum albumen as standard. Aliquots of κ receptor membranes were stored at −80° C.
# Plates were incubated for 30 min at a temperature of about 25° C. with shaking.
# κ opioid receptor [5] = molecular target: T2, κ opioid receptor; assay: κ-opioid receptor [35S]GTPγS functional assay, U-2 OS cells; assay type: biochemical; parameters: expressed in transfected cells; host or cells: U-2 OS (in-house membranes); conditions: U-2 OS cells
# Procedure: Membranes from recombinant HEK-293 cells, CHO or U-2 OS cells expressing the recombinant human κ opioid receptor (κ) were prepared by lysing cells in ice cold hypotonic buffer (2.5 mM MgCl2, 50 mM HEPES, pH 7.4) (10 mL/10 cm dish) followed by homogenization with a tissue grinder/Teflon pestle. […] Membranes were collected by centrifugation at 30,000×g for 15 min at 4° C. and pellets were resuspended in hypotonic buffer to a final concentration of 1-3 mg/mL. Protein concentrations were determined using the BioRad protein assay reagent with bovine serum albumen as standard. Aliquots of κ receptor membranes were stored at −80° C.
# T1 sequence (P35372 whole entry, species assumed): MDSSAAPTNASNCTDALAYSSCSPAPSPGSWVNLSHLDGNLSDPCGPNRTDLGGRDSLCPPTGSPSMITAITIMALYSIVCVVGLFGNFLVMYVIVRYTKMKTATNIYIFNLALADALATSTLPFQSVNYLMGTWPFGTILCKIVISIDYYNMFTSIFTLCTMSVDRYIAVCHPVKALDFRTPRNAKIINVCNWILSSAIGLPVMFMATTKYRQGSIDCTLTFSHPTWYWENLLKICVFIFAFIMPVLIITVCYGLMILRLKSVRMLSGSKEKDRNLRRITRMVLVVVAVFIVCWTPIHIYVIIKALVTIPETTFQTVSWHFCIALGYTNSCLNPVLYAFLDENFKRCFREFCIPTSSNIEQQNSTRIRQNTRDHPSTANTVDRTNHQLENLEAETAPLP
Compound,EC50 (μ-opioid receptor [2]) [µM],Emax (μ-opioid receptor [2]) [%],Ki (κ opioid receptor [3]) [µM],Ki (κ opioid receptor [3]; bound in μM) [µM],other results
"CN1CC[C@]2(C)c3cc(O)ccc3CC1[C@@H]2CC(=O)Nc1ccc(C(=O)O)cc1 [Compound 32, 4-(2-((6S,11R)-8-hydroxy-3,6-dimethyl-1,2,3,4,5,6-hexahydro-2,6-methanobenzo[d]azocin-11-yl)acetamido)benzoic acid]",0.336 ± 0.0928,23 ± 1.53,12.7 ± 2.09,,EC50 (μ-opioid receptor [1]): 0.233 ± 0.0582 µM; Emax (μ-opioid receptor [1]): 39.8 ± 2.46%
"CN1CC[C@]2(C)c3cc(O)ccc3CC1C2N(C)C(=O)Nc1ccc(C(=O)O)cc1 (stereo in doubt) [Compound 46, 4-(3-((2R,6R,11R)-8-hydroxy-3,6-dimethyl-1,2,3,4,5,6-hexahydro-2,6-methanobenzo[d]azocin-11-yl)-3-methylureido)benzoic acid]",13.4 ± 2.99,36.7 ± 3.18,,> 20,
"CN1CC[C@]2(C)c3cc(O)ccc3CC1C2N(C)C(=O)c1ccccc1C(=O)O (stereo in doubt) [Compound 49, 2-(((2R,6R,11S)-8-hydroxy-3,6-dimethyl-1,2,3,4,5,6-hexahydro-2,6-methanobenzo[d]azocin-11-yl)(methyl)carbamoyl)benzoic acid]",> 20,31.3 ± 5.36,,> 20,
"CN1CC[C@]2(C)c3cc(O)ccc3C[C@@H]1[C@H]2COc1cccc(C(=O)O)c1 [Compound 41, 3-(((2R,6S,11S)-8-hydroxy-3,6-dimethyl-1,2,3,4,5,6-hexahydro-2,6-methanobenzo[d]azocin-11-yl)methoxy)benzoic acid]",1.22 ± 0.235,46 ± 3.79,1.88 ± 0.28,,
"CN1CC[C@]2(C)c3cc(O)ccc3CC1[C@@H]2COc1cc(C(N)=O)ccn1 [Compound 53, 2-(((6S,11R)-8-hydroxy-3,6-dimethyl-1,2,3,4,5,6-hexahydro-2,6-methanobenzo[d]azocin-11-yl)methoxy)isonicotinamide]",1.11 ± 0.21,82.7 ± 1.2,0.701 ± 0.058,,
"COc1ccc2c(c1)[C@@]1(C)CCN(C)C(C2)[C@@H]1c1cccc(C(=O)O)c1 [Compound 38, 3-((6S,11R)-8-methoxy-3,6-dimethyl-1,2,3,4,5,6-hexahydro-2,6-methanobenzo[d]azocin-11-yl)benzoic acid]",> 20,,17.4 ± 5.98,,
"C[C@]12CCN(CC3CC3)[C@H](Cc3ccc(O)cc31)[C@H]2NS(=O)(=O)c1cccc(C(F)(F)F)c1 [Compound 128, N-((2R,6S,11S)-3-(cyclopropylmethyl)-8-hydroxy-6-methyl-1,2,3,4,5,6-hexahydro-2,6-methanobenzo[d]azocin-11-yl)-3-(trifluoromethyl)benzenesulfonamide]",0.00767 ± 0.00079,53.5 ± 3.52,,,"EC50 (μ-opioid receptor [1]): 0.00018 ± 6.9e-05 µM; Emax (μ-opioid receptor [1]): 47.8 ± 1.25%; EC50 (κ opioid receptor [4]; read-out: GTPγS κ EC50): 0.00035 ± 0.00015 µM; Emax (κ opioid receptor [4]; relative to U69,593): 40.3 ± 2.19%; EC50 (κ opioid receptor [5]; read-out: GTPγS κ EC50): 0.00074 ± 0.00013 µM; Emax (κ opioid receptor [5]; relative to U69,593, read-out: GTPγS κ Emax): 90.7 ± 1.45%"
"CN1CC[C@]2(C)c3cc(O)ccc3CC1C2N(C)C(=O)Nc1ccc(C(=O)O)cc1 (stereo in doubt) [Compound 45, 4-(3-((2R,6R,11S)-8-hydroxy-3,6-dimethyl-1,2,3,4,5,6-hexahydro-2,6-methanobenzo[d]azocin-11-yl)-3-methylureido)benzoic acid]",3.85 ± 0.839,17 ± 3.06,,> 20,
"CN1CC[C@]2(C)c3cc(O)ccc3CC1[C@@H]2CC(=O)Nc1ccccc1C(=O)O [Compound 35, 2-(2-((6S,11R)-8-hydroxy-3,6-dimethyl-1,2,3,4,5,6-hexahydro-2,6-methanobenzo[d]azocin-11-yl)acetamido)benzoic acid]",2.57 ± 0.783,23 ± 0.58,,> 20,
"CN1CC[C@]2(C)c3cc(O)ccc3C[C@@H]1[C@H]2N(C)C(=O)c1cccc(C(=O)O)c1 [Compound 47, 3-(((2R,6R,11S)-8-hydroxy-3,6-dimethyl-1,2,3,4,5,6-hexahydro-2,6-methanobenzo[d]azocin-11-yl)(methyl)carbamoyl)benzoic acid]",8.89 ± 0.655,58.7 ± 5.24,20,,
"CN1CC[C@]2(C)c3cc(O)ccc3CC1[C@@H]2COc1cncc(C(=O)O)c1 [Compound 34, 5-(((6S,11R)-8-hydroxy-3,6-dimethyl-1,2,3,4,5,6-hexahydro-2,6-methanobenzo[d]azocin-11-yl)methoxy)nicotinic acid]",3.64 ± 0.373,16 ± 3.46,5.99 ± 0.604,,
"CN1CC[C@]2(C)c3cc(O)ccc3CC1[C@@H]2C(=O)Nc1ccc(C(=O)O)cc1 [Compound 52, 4-((6S,11R)-8-hydroxy-3,6-dimethyl-1,2,3,4,5,6-hexahydro-2,6-methanobenzo[d]azocine-11-carboxamido)benzoic acid]",1.03 ± 0.0731,72.3 ± 3.48,,> 20,
"CN1CC[C@]2(C)c3cc(O)ccc3CC1C2N(C)C(=O)NCCC(=O)O (stereo in doubt) [Compound 68, 3-(3-((2R,6R,11S)-8-hydroxy-3,6-dimethyl-1,2,3,4,5,6-hexahydro-2,6-methanobenzo[d]azocin-11-yl)-3-methylureido)propanoic acid]",0.55 ± 0.0316,98 ± 1.73,0.799 ± 0.0982,,
"CN1CC[C@]2(C)c3cc(O)ccc3C[C@@H]1[C@@H]2N(C)C(=O)c1cccc(C(=O)O)c1 [Compound 48, 3-(((2R,6R,11R)-8-hydroxy-3,6-dimethyl-1,2,3,4,5,6-hexahydro-2,6-methanobenzo[d]azocin-11-yl)(methyl)carbamoyl)benzoic acid]",5.19 ± 0.549,26 ± 4.16,,> 20,
"COc1ccc2c(c1)[C@@]1(C)CCN(C)C(C2)[C@@]1(O)c1cccc(C#N)c1 [Compound 60, 3-((6R,11R)-11-hydroxy-8-methoxy-3,6-dimethyl-1,2,3,4,5,6-hexahydro-2,6-methanobenzo[d]azocin-11-yl)benzonitrile]",6.09 ± 0.529,38.3 ± 0.88,,> 20,
"CN1CC[C@]2(C)c3cc(O)ccc3C[C@@H]1[C@H]2COc1cncc(C(=O)O)c1 [Compound 33, 5-(((2R,6S,11S)-8-hydroxy-3,6-dimethyl-1,2,3,4,5,6-hexahydro-2,6-methanobenzo[d]azocin-11-yl)methoxy)nicotinic acid]",2.45 ± 0.167,49 ± 3.67,2.84 ± 0.342,,
"COc1ccc2c(c1)[C@@]1(C)CCN(C)C(C2)[C@@]1(O)c1cccc(C(N)=O)c1 [Compound 67, 3-((6R,11R)-11-hydroxy-8-methoxy-3,6-dimethyl-1,2,3,4,5,6-hexahydro-2,6-methanobenzo[d]azocin-11-yl)benzamide]",> 20,,,> 20,
"CN1CC[C@]2(C)c3cc(O)ccc3CC1[C@@H]2COc1cccc(C(=O)O)c1 [Compound 40, 3-(((6S,11R)-8-hydroxy-3,6-dimethyl-1,2,3,4,5,6-hexahydro-2,6-methanobenzo[d]azocin-11-yl)methoxy)benzoic acid]",3.07 ± 0.469,25.7 ± 3.76,3.12 ± 0.483,,
"COc1ccc2c(c1)[C@@]1(C)CCN(C)C(C2)[C@@]1(O)c1cccc(-c2nnn[nH]2)c1 [Compound 65, (6R,11R)-11-(3-(1H-tetrazol-5-yl)phenyl)-8-methoxy-3,6-dimethyl-1,2,3,4,5,6-hexahydro-2,6-methanobenzo[d]azocin-11-ol]",5.06 ± 1.15,21.7 ± 2.85,,> 20,
"COC(=O)c1cccc([C@]2(O)C3Cc4ccc(OC)cc4[C@@]2(C)CCN3C)c1 [Compound 62, methyl 3-((6R,11R)-11-hydroxy-8-methoxy-3,6-dimethyl-1,2,3,4,5,6-hexahydro-2,6-methanobenzo[d]azocin-11-yl)benzoate]",7.45 ± 0.47,24 ± 2.97,,> 20,
"COc1ccc2c(c1)[C@@]1(C)CCN(C)C(C2)[C@@H]1c1cccc(-c2nnn[nH]2)c1 [Compound 42, (6S,11R)-11-(3-(1H-tetrazol-5-yl)phenyl)-8-methoxy-3,6-dimethyl-1,2,3,4,5,6-hexahydro-2,6-methanobenzo[d]azocine]",> 20,,,> 20,
"COc1ccc2c(c1)[C@@]1(C)CCN(C)C(C2)C1N1CCCC1 (stereo partly drawn) [Compound 69, (6R)-8-methoxy-3,6-dimethyl-11-(pyrrolidin-1-yl)-1,2,3,4,5,6-hexahydro-2,6-methanobenzo[d]azocine]",> 20,24.3 ± 2.96,19.8,,
"CN1CC[C@]2(C)c3cc(O)ccc3CC1[C@@H]2CC(=O)N1CCC(C(=O)O)CC1 [Compound 72, 1-(2-((6S,11R)-8-hydroxy-3,6-dimethyl-1,2,3,4,5,6-hexahydro-2,6-methanobenzo[d]azocin-11-yl)acetyl)piperidine-4-carboxylic acid]",4.89 ± 0.508,70.3 ± 8.33,14.8,,
